In PMC10591924 (Journal of medicinal chemistry, 2023):
One block for each compound: values may come before it.

Experiments:
[1] = LC-MS control: inhibitor in size exclusion buffer without enzyme; format: physicochemical; settings: 100 μM inhibitor in size exclusion buffer only (pH 7.5), overnight
HDAC1 = HDAC1 (Homo sapiens, UniProt Q13547); experiment: Preincubation HDAC inhibition assay, HDAC1; format: biochemical; settings: preincubation 1 h at 25 °C
HDAC4 = HDAC4 (Homo sapiens, UniProt P56524); experiment: Preincubation HDAC inhibition assay, HDAC4; format: biochemical; settings: preincubation 1 h at 25 °C
HDAC4, sequence (P56524 whole entry): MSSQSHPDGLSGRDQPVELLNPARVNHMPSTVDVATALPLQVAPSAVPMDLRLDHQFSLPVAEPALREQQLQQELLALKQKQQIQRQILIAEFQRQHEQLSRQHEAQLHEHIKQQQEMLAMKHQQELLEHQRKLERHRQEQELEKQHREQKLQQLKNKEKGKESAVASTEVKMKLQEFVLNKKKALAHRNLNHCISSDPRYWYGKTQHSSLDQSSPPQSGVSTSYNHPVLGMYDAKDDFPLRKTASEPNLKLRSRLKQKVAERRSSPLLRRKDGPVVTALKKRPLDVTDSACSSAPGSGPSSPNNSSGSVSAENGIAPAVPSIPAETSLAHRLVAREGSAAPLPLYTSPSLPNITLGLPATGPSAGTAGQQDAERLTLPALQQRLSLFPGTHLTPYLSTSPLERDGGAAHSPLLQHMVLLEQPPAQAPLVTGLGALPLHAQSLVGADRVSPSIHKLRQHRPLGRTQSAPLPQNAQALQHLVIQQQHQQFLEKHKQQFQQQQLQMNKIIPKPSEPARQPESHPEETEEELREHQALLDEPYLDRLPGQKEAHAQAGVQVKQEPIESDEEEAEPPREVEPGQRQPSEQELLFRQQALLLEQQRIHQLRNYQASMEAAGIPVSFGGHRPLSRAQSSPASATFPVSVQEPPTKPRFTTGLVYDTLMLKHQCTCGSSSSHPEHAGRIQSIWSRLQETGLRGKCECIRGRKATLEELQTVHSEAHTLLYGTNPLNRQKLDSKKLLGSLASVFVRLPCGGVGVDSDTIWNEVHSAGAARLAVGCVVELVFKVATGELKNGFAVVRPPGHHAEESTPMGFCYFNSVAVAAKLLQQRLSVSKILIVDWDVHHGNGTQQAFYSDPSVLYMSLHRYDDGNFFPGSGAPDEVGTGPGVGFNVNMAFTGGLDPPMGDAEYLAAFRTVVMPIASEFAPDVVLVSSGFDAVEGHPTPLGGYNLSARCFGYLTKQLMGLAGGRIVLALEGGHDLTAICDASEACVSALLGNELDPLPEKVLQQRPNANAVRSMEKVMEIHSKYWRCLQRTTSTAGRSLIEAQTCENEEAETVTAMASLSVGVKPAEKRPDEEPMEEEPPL

HDAC6 [2] = target: T1, HDAC6 (Homo sapiens, UniProt Q9UBN7); experiment: IC50-shift experiments at HDAC6; format: biochemical; settings: preincubation 5, 60 and 120 min
T1 sequence (Q9UBN7 1-1215): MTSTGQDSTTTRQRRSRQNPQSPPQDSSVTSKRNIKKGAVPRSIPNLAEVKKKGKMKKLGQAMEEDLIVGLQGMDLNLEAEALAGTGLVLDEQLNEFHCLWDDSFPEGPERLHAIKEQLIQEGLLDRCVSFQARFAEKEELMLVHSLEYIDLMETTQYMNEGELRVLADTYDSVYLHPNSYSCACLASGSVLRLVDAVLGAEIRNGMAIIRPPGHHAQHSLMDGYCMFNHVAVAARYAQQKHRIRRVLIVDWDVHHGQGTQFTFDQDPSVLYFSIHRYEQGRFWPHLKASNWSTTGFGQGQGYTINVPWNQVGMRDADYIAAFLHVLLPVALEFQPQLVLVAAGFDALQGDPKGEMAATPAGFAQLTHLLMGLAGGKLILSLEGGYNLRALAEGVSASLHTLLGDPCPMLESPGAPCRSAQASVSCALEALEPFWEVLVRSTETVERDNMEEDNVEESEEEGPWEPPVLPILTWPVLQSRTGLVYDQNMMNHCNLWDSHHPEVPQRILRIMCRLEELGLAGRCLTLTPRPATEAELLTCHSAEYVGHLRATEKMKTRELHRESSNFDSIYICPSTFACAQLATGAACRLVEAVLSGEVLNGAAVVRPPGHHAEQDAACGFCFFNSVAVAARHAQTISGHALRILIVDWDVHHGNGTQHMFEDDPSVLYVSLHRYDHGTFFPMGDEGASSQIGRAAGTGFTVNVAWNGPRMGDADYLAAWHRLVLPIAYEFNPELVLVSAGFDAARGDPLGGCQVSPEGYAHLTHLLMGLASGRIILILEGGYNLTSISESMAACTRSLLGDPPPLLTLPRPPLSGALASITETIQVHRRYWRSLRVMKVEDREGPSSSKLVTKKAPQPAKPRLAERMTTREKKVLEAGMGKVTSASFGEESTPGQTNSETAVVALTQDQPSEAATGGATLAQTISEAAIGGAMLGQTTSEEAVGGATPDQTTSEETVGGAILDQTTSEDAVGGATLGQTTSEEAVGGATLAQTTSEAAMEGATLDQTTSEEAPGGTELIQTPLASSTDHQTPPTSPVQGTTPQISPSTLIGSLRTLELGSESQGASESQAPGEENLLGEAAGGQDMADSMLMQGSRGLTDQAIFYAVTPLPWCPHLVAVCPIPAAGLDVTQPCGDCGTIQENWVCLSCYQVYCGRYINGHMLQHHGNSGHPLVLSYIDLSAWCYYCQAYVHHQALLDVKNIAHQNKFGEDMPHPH

HDAC6 [3] = target: T1, HDAC6; experiment: Binding kinetics via the Progression Method at HDAC6; format: biochemical; settings: progression curves, substrate at five times KM, 37 °C
HDAC2 = HDAC2 (Homo sapiens, UniProt Q92769); experiment: Preincubation HDAC inhibition assay, HDAC2; format: biochemical; settings: preincubation 1 h at 25 °C
HDAC2, sequence (Q92769 whole entry): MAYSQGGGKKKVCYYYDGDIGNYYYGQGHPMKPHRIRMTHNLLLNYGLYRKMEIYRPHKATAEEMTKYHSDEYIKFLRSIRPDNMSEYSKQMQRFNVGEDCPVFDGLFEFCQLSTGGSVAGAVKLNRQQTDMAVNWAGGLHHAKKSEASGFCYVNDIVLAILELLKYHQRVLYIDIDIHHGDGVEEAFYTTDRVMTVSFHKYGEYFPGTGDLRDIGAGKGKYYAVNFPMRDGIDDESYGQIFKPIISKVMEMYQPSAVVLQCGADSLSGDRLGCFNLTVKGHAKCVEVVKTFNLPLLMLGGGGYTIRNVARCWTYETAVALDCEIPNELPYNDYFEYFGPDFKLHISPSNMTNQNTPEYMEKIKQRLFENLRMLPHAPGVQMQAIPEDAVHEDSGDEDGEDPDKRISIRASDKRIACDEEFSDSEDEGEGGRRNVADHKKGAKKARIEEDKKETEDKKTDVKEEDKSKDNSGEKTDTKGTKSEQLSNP

HDAC6 [4] = target: T1, HDAC6; experiment: Preincubation HDAC inhibition assay, HDAC6; format: biochemical; settings: preincubation 1 h at 25 °C

HDAC1, sequence (Q13547 whole entry): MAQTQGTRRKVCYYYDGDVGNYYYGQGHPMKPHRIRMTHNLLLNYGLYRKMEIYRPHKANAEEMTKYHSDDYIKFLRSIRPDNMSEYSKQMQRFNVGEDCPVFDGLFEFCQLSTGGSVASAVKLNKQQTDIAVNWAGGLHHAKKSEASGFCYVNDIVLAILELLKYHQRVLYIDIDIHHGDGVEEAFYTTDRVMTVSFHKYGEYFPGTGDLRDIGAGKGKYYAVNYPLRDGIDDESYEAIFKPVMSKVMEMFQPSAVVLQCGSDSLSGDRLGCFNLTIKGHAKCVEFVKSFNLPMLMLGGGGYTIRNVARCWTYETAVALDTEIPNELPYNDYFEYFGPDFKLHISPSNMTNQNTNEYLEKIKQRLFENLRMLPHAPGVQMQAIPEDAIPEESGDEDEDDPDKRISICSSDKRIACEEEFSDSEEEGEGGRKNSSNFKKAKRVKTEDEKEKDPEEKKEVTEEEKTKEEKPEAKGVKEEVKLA

- Hydrolysis in the absence of enzyme [1]: does not undergo hydrolysis
- HDAC1 percent inhibition at 10 μM (HDAC1): no activity
- HDAC4 percent inhibition at 10 μM (HDAC4): no activity
- Slow-binding mechanism from kobs vs inhibitor concentration (HDAC6 [3]): mechanism II
- HDAC2 percent inhibition at 10 μM (HDAC2): no activity
Compound: FC(F)c1nnc(-c2cnc(NCc3ccccc3)nc2)o1 [Compound 6, N-Benzyl-5-[5-(difluoromethyl)-1,3,4-oxadiazol-2-yl]pyrimidin-2-amine]
- Dependence of HDAC6 inhibition on preincubation time (HDAC6 [2]): highly dependent on the preincubation time

- HDAC6 percent inhibition at 10 μM (HDAC6 [4]): only moderate inhibitory activity
- HDAC1 percent inhibition at 10 μM (HDAC1): inactive
- HDAC4 percent inhibition at 10 μM (HDAC4): inactive
- HDAC2 percent inhibition at 10 μM (HDAC2): inactive
Compound: CCCCN(Cc1ccc(-c2nnc(C(F)F)o2)cc1)C(=O)Nc1ccccc1 [Compound 9, 1-Butyl-1-{4-[5-(difluoromethyl)-1,3,4-oxadiazol-2-yl]benzyl}−3-phenylurea]

- HDAC6 percent inhibition at 10 μM (HDAC6 [4]): only moderate inhibitory activity
- HDAC1 percent inhibition at 10 μM (HDAC1): inactive
- HDAC4 percent inhibition at 10 μM (HDAC4): inactive
- HDAC2 percent inhibition at 10 μM (HDAC2): inactive
Compound: CCCCN(Cc1ccc(-c2nnc(C(F)F)o2)cc1)C(=O)c1ccccc1 [Compound 10, N-Butyl-N-{4-[5-(difluoromethyl)-1,3,4-oxadiazol-2-yl]benzyl}benzamide]

- HDAC6 percent inhibition at 10 μM (HDAC6 [4]): only moderate inhibitory activity
- HDAC1 percent inhibition at 10 μM (HDAC1): inactive
- HDAC4 percent inhibition at 10 μM (HDAC4): inactive
- HDAC2 percent inhibition at 10 μM (HDAC2): inactive
Compound: CN(C)c1ccc(C(=O)N(CC(=O)NCc2ccccc2)Cc2ccc(-c3nnc(C(F)F)o3)cc2)cc1 [Compound 12, N-[2-(Benzylamino)-2-oxoethyl]-N-{4-[5-(difluoromethyl)-1,3,4-oxadiazol-2-yl]benzyl}−4-(dimethylamino)benzamide]

- HDAC6 percent inhibition at 10 μM (HDAC6 [4]): does not show any inhibitory activity
Compound: O=C(NNC(=O)C(F)F)c1cnc(NCc2ccccc2)nc1 [Compound 13, 2-(Benzylamino)-N’-(2,2-difluoroacetyl)pyrimidine-5-carbohydrazide]

The remaining lines, values behind:

Compound: COc1ccc(CNc2ncc(-c3nnc(C(F)F)o3)cn2)cc1 [Compound 7, 5-[5-(Difluoromethyl)-1,3,4-oxadiazol-2-yl]-N-(4-methoxybenzyl)pyrimidin-2-amine]
- HDAC1 percent inhibition at 10 μM (HDAC1): no activity
- HDAC4 percent inhibition at 10 μM (HDAC4): no activity
- HDAC2 percent inhibition at 10 μM (HDAC2): no activity

Compound: FC(F)(F)c1nnc(-c2cnc(NCc3ccccc3)nc2)o1 [Compound 17, N-Benzyl-5-[5-(trifluoromethyl)-1,3,4-oxadiazol-2-yl]pyrimidin-2-amine]
- HDAC1 percent inhibition at 10 μM (HDAC1): no inhibition
- HDAC4 percent inhibition at 10 μM (HDAC4): no inhibition
- Dependence of HDAC6 inhibition on preincubation time (HDAC6 [2]): substantial decrease in the HDAC6 IC50 values upon preincubation
- Slow-binding mechanism from kobs vs inhibitor concentration (HDAC6 [3]): single-step slow-binding mechanism I
- HDAC2 percent inhibition at 10 μM (HDAC2): no inhibition

Compound: O=C(CCCCCCC(=O)Nc1ccccc1)NO [Vorinostat, reference compound]
- Dependence of HDAC6 inhibition on preincubation time (HDAC6 [2]): did not depend on the preincubation time
